Assay results taken from publication PMC11788587, “Validating Low‐Dose Iohexol as a Marker for Glomerular Filtration Rate by In Vitro and In Vivo Studies” (Clinical and Translational Science, 2025).
Like-named read-outs stand apart in the source and are kept apart here.

How the values were obtained:
[1] = target: T1, hMATE2K (Homo sapiens, UniProt Q86VL8); assay: Inhibition of hMATE2K-mediated MPP+ uptake, stably transfected 293 cells; type: cell-based; conditions: substrate 3 µM MPP+, median (95% CI)
T1 construct: expressed in transfected cells; host or cells: HEK-293 (293) cells, pEBTetD plasmid, doxycycline-induced
T1 sequence (Q86VL8 1-566 isoform Q86VL8-3): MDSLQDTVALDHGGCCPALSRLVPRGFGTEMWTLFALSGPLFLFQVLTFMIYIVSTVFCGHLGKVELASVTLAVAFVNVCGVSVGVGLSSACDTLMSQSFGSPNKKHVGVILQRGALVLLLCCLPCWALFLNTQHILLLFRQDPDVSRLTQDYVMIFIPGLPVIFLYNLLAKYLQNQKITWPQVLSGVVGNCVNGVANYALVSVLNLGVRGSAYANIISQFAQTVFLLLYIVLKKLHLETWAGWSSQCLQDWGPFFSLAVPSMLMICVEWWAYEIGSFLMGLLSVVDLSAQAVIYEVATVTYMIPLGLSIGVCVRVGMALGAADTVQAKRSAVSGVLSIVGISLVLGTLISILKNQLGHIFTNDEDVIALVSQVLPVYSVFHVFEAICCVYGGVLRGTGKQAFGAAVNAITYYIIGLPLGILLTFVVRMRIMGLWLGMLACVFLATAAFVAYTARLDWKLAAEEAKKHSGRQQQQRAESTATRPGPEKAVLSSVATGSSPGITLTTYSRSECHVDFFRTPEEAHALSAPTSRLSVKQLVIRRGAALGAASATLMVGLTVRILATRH
Excerpt: (§1) We characterized the inhibitory potential of iohexol on major drug transporters recommended by regulatory agencies, which were previously assessed in a clinical transporter phenotyping cocktail study. These transporters include hOAT1, hOAT3, hOCT1, hOCT2, hMATE1, hMATE2K, human organic anion transporter polypeptides (hOATP)1B1, hOATP1B3, and human multidrug resistance protein (hMDR)1. Additionally, we investigated whether iohexol is a substrate for any of the renal transporters among these, including hOAT1/3, hOCT1/2, and hMATE1/2K. Cell‐based uptake assays were used to assess the activities of hOAT1/3, hOCT1/2, hMATE1/2K, and hOATP1B1/1B3. Inside‐out membrane vesicle uptake assays were used to evaluate the activity of hMDR1.
To determine the maximal inhibitory potential of iohexol, intracellular accumulation of a standard substrate was measured with and without the clinically relevant highest concentrations of iohexol. Control inhibitors were tested in each experiment.
In all subsequent in vitro studies, control experiments were conducted to validate the results. These included positive controls for substrates and inhibitors, as well as cells either without transporter expression or transfected with an empty vector, and control vesicles. Each condition, including cells or vesicles with the transporter and their respective controls, was analyzed in at least three replicates. For detailed information on materials, methods, and data analysis techniques used, refer to the Supporting Information. […]
(§2) R version 4.2.1 (R Foundation for Statistical Computing, Vienna, Austria) was used for statistical evaluations and data visualization. The data analysis approach for the in vitro study was detailed by Hsin CH et al..^1 In brief, for transport assays, the initial uptake rate was calculated by normalizing the substrate concentration to both the protein concentration and the incubation time for each dish or well. The transporter-mediated uptake rate (net uptake) was determined by performing an element-wise subtraction of uptake rates from different conditions. […]

[2] = target: T2, hOAT3 (Homo sapiens, UniProt Q8TCC7); assay: Substrate assessment: iohexol uptake in 293 cells expressing hOAT3 vs control; type: in vitro ADME; conditions: 10 μM iohexol, median (95% CI)
T2 construct: expressed in transfected cells; host or cells: HEK-293 (293) cells, pEBTetD plasmid, doxycycline-induced
T2 sequence (Q8TCC7 1-542): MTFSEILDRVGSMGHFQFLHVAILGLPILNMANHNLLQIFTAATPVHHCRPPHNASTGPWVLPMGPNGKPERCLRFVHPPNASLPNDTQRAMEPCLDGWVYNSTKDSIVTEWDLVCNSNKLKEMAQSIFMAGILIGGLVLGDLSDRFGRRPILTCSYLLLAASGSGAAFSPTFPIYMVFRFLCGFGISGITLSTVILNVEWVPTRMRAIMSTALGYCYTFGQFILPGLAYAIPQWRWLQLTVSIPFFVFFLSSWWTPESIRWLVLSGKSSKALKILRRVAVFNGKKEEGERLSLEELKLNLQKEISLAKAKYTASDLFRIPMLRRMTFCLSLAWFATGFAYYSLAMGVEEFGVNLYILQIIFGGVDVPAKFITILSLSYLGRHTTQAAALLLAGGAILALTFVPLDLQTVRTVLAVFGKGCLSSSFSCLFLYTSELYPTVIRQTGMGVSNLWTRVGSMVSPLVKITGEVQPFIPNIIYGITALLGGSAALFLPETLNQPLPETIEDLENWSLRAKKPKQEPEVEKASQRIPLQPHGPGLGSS
Excerpt: as §1
For substrate assessments, iohexol was incubated with stably transfected HEK‐293 cells expressing one of the following transporters: hOAT1, hOAT3, hOCT1, hOCT2, hMATE1, or hMATE2K, as well as with control cells lacking transporter expression. Stably transfected cell lines containing pEBTetD plasmids with wild‐type human transporter cDNAs were generated as previously described. Transporter expression was induced by adding 1 μg/mL doxycycline to the growth medium for at least 20 h. Iohexol would be considered a substrate for these transporters if: (1) the ratio of iohexol uptake in cells expressing the transporter to that in control cells was ≥ 2, and (2) a known inhibitor of the transporter reduced iohexol uptake to ≤ 50% at concentrations ≥ 10 times its inhibition constant or half‐maximal inhibitory concentration.
Uptake assays were performed using stably transfected 293 cells, with or without the expression of one of the following transporters: hOAT1, hOAT3, hOCT1, hOCT2, hMATE1, or hMATE2K, as previously described.^1
For the substrate assessment, cells were incubated with 10 µM iohexol for 10 minutes and 30 minutes for each transporter. Inhibition assays were performed using specific standard substrates for each transporter: 10 µM para-aminohippuric acid (PAH) for hOAT1, 3 µM estrone-3-sulfate (E3S) for hOAT3, 50 µM metformin for hOCT1, 5 µM metformin for hOCT2, and 3 µM 1-methyl-4-phenylpyridinium (MPP+) for hMATE1 and hMATE2K. […]
as §2

[3] = parameters: method as in PMID 27679715; conditions: cited from earlier work
[4] = Clinical trial in healthy volunteers, noncompartmental analysis of plasma and urine; type: in vivo, human; conditions: for CL (plasma clearance, dose/AUC) / Ae0‐t (cumulative urinary excretion of unchanged iohexol) / Rmax (maximum observed excretion rate) / Vd / half-life / dose excreted / AUC: fasting, geomean (geoSD); for CL (plasma clearance, dose/AUC) / Vd / half-life / AUC: n=12, plasma; for Vd / half-life / dose excreted / AUC: human, iv; for Vd: read-out: Vz; for half-life: read-out: t1/2,λz (converted); for dose excreted: read-out: Recovery (percentage of dose recovered in urine)
[5] = Reference: 3235 mg i.v. bolus, urine, n=10
[6] = Test: 259 mg i.v. bolus, urine, n=10

CC(=O)N(CC(O)CO)c1c(I)c(C(=O)NCC(O)CO)c(I)c(C(=O)NCC(O)CO)c1I (centres unmarked) [iohexol]
Inhibitory effect (% reduction of specific activity) ([1]; 20 mM iohexol): < 30%
inhibition at 1000 µM ([1]; HEK293, 1 mM iohexol, read-out: Inhibitory effect (% reduction of specific activity)): 14%
inhibition at 20000 µM ([1]; HEK293, 20 mM iohexol, read-out: Inhibitory effect (% reduction of specific activity)): 26%
Differences in intracellular accumulation (expression on minus off) ([2]; 10 minutes): 0.6 (0.1 to 2) pmol/mg protein
Uptake ratio (transporter-expressing vs non-expressing cells) ([2]; 10 minutes): 1.1 (1 to 1.4)
Differences in intracellular accumulation (expression on minus off) ([2]; 30 minutes): 0.89 (0.19 to 1.5) pmol/mg protein
Uptake ratio (transporter-expressing vs non-expressing cells) ([2]; 30 minutes): 1.2 (1.1 to 1.3)
Plasma protein binding [3]: 1.5%
T/R ratio (90% CIs) of urinary recovery ([4]; 259 mg test vs 3235 mg reference, urine, n=10): 1.06 (0.960–1.17)
CL (plasma clearance, dose/AUC) ([4]; Reference: 3235 mg i.v. bolus): 5.43 (1.19) L/h
Ae0‐t (cumulative urinary excretion of unchanged iohexol) [4, 5]: 3364 (1.14) mg
Rmax (maximum observed excretion rate) [4, 5]: 951 (1.12) mg/h
CL (plasma clearance, dose/AUC) ([4]; Test: 259 mg i.v. bolus): 5.46 (1.15) L/h
Ae0‐t (cumulative urinary excretion of unchanged iohexol) [4, 6]: 273 (1.09) mg
Rmax (maximum observed excretion rate) [4, 6]: 73.7 (1.27) mg/h
Vd ([4]; Reference: 3235 mg i.v. bolus): 32.4 L
half-life ([4]; Reference: 3235 mg i.v. bolus): 4.14 h
dose excreted [4, 5]: 103%
Vd ([4]; Test: 259 mg i.v. bolus): 26.1 L
half-life ([4]; Test: 259 mg i.v. bolus): 3.32 h
dose excreted [4, 6]: 106%
AUC ([4]; 259 mg, Test: 259 mg i.v. bolus, read-out: AUC0‐t): 46.5 µg·h/mL
AUC ([4]; 259 mg, Test: 259 mg i.v. bolus, read-out: AUC0‐∞): 46.7 µg·h/mL
AUC ([4]; 3235 mg, Reference: 3235 mg i.v. bolus, read-out: AUC0‐t): 598 µg·h/mL
AUC ([4]; 3235 mg, Reference: 3235 mg i.v. bolus, read-out: AUC0‐∞): 600 µg·h/mL
CVintra of CL ([4]; intraindividual coefficient of variation, test vs reference): 5.29%
